The structures appear in SMILES notation.

In assay [1] the target is T1, Receptor-type tyrosine-protein kinase FLT3 (Homo sapiens, UniProt P36888).
T1 sequence (P36888 whole entry): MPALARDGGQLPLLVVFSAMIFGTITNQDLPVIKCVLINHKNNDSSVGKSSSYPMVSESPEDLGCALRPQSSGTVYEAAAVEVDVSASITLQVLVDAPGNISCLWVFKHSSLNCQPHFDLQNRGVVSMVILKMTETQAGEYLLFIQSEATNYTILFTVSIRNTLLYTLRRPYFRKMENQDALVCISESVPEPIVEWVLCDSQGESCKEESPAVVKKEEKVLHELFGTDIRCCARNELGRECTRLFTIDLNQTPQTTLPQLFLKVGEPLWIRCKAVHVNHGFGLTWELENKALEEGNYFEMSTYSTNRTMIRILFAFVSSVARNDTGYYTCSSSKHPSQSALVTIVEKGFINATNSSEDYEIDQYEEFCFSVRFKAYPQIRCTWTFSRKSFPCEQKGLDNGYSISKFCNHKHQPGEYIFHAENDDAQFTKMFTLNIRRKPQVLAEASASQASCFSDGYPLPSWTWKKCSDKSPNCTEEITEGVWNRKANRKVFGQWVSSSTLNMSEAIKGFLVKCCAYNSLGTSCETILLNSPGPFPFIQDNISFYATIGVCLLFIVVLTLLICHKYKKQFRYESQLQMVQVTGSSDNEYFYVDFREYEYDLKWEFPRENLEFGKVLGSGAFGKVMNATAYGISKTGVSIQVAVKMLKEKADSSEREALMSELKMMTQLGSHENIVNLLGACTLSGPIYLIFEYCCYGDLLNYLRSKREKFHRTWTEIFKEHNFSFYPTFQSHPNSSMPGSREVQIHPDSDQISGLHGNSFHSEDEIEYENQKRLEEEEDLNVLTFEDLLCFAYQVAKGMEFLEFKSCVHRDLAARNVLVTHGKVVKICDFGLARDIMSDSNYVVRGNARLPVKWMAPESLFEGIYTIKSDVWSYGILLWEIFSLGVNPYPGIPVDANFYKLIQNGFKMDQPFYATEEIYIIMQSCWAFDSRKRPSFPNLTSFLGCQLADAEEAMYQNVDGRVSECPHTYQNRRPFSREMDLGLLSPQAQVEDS
The assay can be described thus: Inhibition of human N-terminal GST-tagged FLT3 cytoplasmic domain (564 to 993 residues) expressed in baculovirus expression system using 5-FAM-peptide 2 as substrate after 2 hrs by electrophoretic mobility shift assay in presence of ATP.

In assay [2] the target is T2, Serine/threonine-protein kinase 4 (Homo sapiens) (UniProt Q13043).
T2 sequence (whole entry): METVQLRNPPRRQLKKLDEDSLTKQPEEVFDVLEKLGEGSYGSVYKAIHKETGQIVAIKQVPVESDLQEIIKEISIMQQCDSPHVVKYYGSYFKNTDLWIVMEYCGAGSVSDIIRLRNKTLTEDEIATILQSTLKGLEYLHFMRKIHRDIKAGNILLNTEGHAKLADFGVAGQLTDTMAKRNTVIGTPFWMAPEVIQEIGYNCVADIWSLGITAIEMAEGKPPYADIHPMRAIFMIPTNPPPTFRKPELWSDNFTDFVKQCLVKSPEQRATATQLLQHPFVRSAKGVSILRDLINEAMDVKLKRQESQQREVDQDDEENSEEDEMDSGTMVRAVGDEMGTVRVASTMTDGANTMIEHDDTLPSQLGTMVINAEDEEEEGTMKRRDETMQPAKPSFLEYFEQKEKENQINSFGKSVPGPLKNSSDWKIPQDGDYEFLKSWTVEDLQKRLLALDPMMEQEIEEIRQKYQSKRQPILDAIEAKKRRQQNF
In words: Inhibition of full length human N-terminal GST-tagged MST1 (1 to 487 residues) expressed in baculovirus expression system using fluorescence labelled IRS1 as substrate at 50 times IC50 by electrophoretic mobility shift assay relative to control.

Assay [3] concerns the target T3, Serine/threonine-protein kinase D2 (Homo sapiens) (UniProt Q9BZL6).
T3 sequence (whole entry): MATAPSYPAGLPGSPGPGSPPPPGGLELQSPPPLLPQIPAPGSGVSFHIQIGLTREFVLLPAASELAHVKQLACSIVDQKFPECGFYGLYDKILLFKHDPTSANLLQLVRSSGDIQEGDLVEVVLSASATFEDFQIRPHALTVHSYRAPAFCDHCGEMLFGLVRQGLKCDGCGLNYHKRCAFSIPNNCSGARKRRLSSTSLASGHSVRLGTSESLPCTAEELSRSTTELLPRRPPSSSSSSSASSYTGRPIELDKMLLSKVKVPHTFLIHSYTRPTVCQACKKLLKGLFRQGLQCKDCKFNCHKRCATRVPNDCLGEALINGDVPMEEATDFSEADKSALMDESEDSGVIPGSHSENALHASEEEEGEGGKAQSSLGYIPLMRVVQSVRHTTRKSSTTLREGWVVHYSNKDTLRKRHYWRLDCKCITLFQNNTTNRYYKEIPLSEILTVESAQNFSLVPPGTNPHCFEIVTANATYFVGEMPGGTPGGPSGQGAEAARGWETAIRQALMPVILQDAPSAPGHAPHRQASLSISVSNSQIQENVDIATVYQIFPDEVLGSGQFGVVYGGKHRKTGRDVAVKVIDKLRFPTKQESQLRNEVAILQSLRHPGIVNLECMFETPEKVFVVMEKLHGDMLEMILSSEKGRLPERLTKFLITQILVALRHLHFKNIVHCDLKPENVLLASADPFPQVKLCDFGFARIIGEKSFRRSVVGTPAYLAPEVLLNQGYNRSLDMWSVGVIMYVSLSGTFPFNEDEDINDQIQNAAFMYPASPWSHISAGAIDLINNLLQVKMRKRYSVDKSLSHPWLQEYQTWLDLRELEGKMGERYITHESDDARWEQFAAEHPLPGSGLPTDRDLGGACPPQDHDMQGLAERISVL
The assay can be described thus: Inhibition of full length human N-terminal GST-tagged PKD2 (1 to 878 residues) expressed in baculovirus expression system using fluorescence labelled GS peptide substrate at 50 times IC50 by electrophoretic mobility shift assay relative to control. (In general: A gel shift assay detects complexes by their altered migration in electrophoresis.)

Assay [4] concerns the target CDK2/Cyclin A2 (Homo sapiens) (UniProt P24941+P20248). The assay can be described thus: Inhibition of full length human N-terminal GST-tagged CDK2 (1 to 298 residues)/Cyclin A2 (1 to 432 residues) expressed in baculovirus expression system using fluorescence labelled modified histone H1 as substrate at 50 times IC50 by electrophoretic mobility shift assay relative to control.

The target in assay [5] is Mitogen-activated protein kinase 14 (Homo sapiens) (UniProt Q16539). In words: Inhibition of human N-terminal GST-tagged p38alpha (9 to 352 residues) expressed in Escherichia coli using fluorescence labelled modified Erktide as substrate at 50 times IC50 by electrophoretic mobility shift assay relative to control.
Mitogen-activated protein kinase 14 (Homo sapiens), sequence (Q16539 whole entry, the tested form may be a part): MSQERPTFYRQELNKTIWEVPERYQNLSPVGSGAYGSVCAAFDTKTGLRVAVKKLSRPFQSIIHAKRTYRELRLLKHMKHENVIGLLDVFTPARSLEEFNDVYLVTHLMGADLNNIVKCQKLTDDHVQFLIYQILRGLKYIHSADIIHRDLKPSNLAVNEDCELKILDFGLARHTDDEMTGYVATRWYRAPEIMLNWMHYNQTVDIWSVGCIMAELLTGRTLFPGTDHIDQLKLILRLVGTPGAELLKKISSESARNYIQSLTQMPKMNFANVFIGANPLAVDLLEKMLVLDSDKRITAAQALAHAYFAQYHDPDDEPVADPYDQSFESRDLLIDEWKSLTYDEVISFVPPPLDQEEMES

Consider `O=C(Nc1ccc(CN2CCN(c3ccccc3)CC2)cc1)c1n[nH]c2ccccc12`, for which the IC50 in assay [1] was 10 nM. For the same molecule, the inhibition in assay [2] was 32.6%; in assay [3], 4.5%; in assay [4], 4.5%; in assay [5] it was -2.6%.

`O=C(Nc1ccc(C(=O)N2CCN(c3ccccc3)CC2)cc1)c1n[nH]c2ccccc12`: in assay [1], the IC50 worked out at 34 nM. Further, the inhibition was 16.8% in assay [2], 5.7% in assay [3], 14.9% in assay [4] and -1.8% in assay [5].

In the case of `O=C(Nc1ccccc1)c1n[nH]c2ccccc12`, the IC50 in assay [1] was 417 nM. Also, the inhibition in assay [2] worked out at 31.9%; in assay [3] it was 1.3%; in assay [4] it was 86.3%; in assay [5] it was 6.9%.

The IC50 is the concentration that inhibits the measured activity by half. Usually inhibition stands for the relative decrease from the control value, in per cent.
